Reference: the supplement of paper PMC10307832

Columns and labels:
Test in all cases: relative viability (nuclei count vs DMSO), 5 days (fraction); higher = more cells survive
Gemcitabine + AZD7762 = compound: Nc1ccn([C@@H]2O[C@H](CO)[C@@H](O)C2(F)F)c(=O)n1 [Gemcitabine] + NC(=O)Nc1cc(-c2cccc(F)c2)sc1C(=O)N[C@H]1CCCNC1 [AZD7762] (partner 0.2 µM)
Outline: (§1)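 For relative viability, nuclei counts in treated wells were divided by those in vehicle wells. Lung cancer cell lines had been pin-tool dosed in 1536-well plates the day after seeding and cultured for 5 days, then fixed and stained in one step (final 0.05% Triton X-100, 1% formaldehyde, 1 ug/ml Hoechst) and imaged at 4×. Doses were one drug alone or a fixed anchor-drug dose plus five library-drug doses (not always all listed) in √10 steps, and values are duplicate-plate medians.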

Gemcitabine + Vorinostat = compound: Nc1ccn([C@@H]2O[C@H](CO)[C@@H](O)C2(F)F)c(=O)n1 [Gemcitabine] + O=C(CCCCCCC(=O)Nc1ccccc1)NO [Vorinostat] (partner 1 µM)
Outline: as §1

Gemcitabine + Foretinib = compound: Nc1ccn([C@@H]2O[C@H](CO)[C@@H](O)C2(F)F)c(=O)n1 [Gemcitabine] + COc1cc2c(Oc3ccc(NC(=O)C4(C(=O)Nc5ccc(F)cc5)CC4)cc3F)ccnc2cc1OCCCN1CCOCC1 [Foretinib] (partner 0.25 µM)
Outline: as §1

Gemcitabine + Pictilisib = compound: Nc1ccn([C@@H]2O[C@H](CO)[C@@H](O)C2(F)F)c(=O)n1 [Gemcitabine] + CS(=O)(=O)N1CCN(Cc2cc3nc(-c4cccc5[nH]ncc45)nc(N4CCOCC4)c3s2)CC1 [Pictilisib] (partner 1 µM)
Outline: as §1

Cell Line | relative viability (Gemcitabine + AZD7762; first compound 0.001 µM) | relative viability (Gemcitabine + AZD7762; first compound 0.003162 µM) | relative viability (Gemcitabine + AZD7762; first compound 0.01 µM) | relative viability (Gemcitabine + AZD7762; first compound 0.03162 µM) | relative viability (Gemcitabine + AZD7762; first compound 0.1 µM) | relative viability (Gemcitabine + Vorinostat; first compound 0.001 µM) | relative viability (Gemcitabine + Vorinostat; first compound 0.003162 µM) | relative viability (Gemcitabine + Vorinostat; first compound 0.01 µM) | relative viability (Gemcitabine + Vorinostat; first compound 0.03162 µM) | relative viability (Gemcitabine + Vorinostat; first compound 0.1 µM) | relative viability (Gemcitabine + Foretinib; first compound 0.001 µM) | relative viability (Gemcitabine + Foretinib; first compound 0.003162 µM) | relative viability (Gemcitabine + Foretinib; first compound 0.01 µM) | relative viability (Gemcitabine + Foretinib; first compound 0.03162 µM) | relative viability (Gemcitabine + Foretinib; first compound 0.1 µM) | relative viability (Gemcitabine + Pictilisib; first compound 0.001 µM) | relative viability (Gemcitabine + Pictilisib; first compound 0.003162 µM) | relative viability (Gemcitabine + Pictilisib; first compound 0.01 µM) | relative viability (Gemcitabine + Pictilisib; first compound 0.03162 µM) | relative viability (Gemcitabine + Pictilisib; first compound 0.1 µM)
NCI-H441 | 0.603 | 0.134 | 0.11 | 0.165 | 0.128 | 0.717 | 0.265 | 0.182 | 0.157 | 0.123 | 1.2 | 0.711 | 0.421 | 0.21 | 0.211 | 0.521 | 0.343 | 0.196 | 0.109 | 0.126
NCI-H1793 | 0.778 | 0.211 | 0.0841 | 0.161 | 0.0995 | 0.985 | 0.62 | 0.152 | 0.148 | 0.106 | 0.71 | 0.652 | 0.437 | 0.141 | 0.136 | 0.262 | 0.282 | 0.291 | 0.186 | 0.176
NCI-H23 | 0.154 | 0.134 | 0.0996 | 0.112 | 0.118 | 0.504 | 0.122 | 0.11 | 0.106 | 0.109 | 0.751 | 0.441 | 0.178 | 0.163 | 0.131 | 0.446 | 0.328 | 0.143 | 0.146 | 0.104
HARA | 0.328 | 0.241 | 0.131 | 0.132 | 0.117 | 0.497 | 0.538 | 0.444 | 0.0835 | 0.0515 | 0.965 | 0.894 | 0.853 | 0.119 | 0.0735 | 0.299 | 0.483 | 0.532 | 0.261 | 0.0888
NCI-H1792 | 0.166 | 0.0355 | 0.0254 | 0.0229 | 0.033 |  |  |  |  |  |  |  |  |  |  | 0.238 | 0.226 | 0.111 | 0.0979 | 0.0699
NCI-H1703 | 0.118 | 0.104 | 0.105 | 0.0773 | 0.0798 |  |  |  |  |  | 0.277 | 0.238 | 0.185 | 0.175 | 0.167 | 0.208 | 0.227 | 0.158 | 0.154 | 0.132
NCI-H1648 | 0.686 | 0.551 | 0.401 | 0.3 | 0.279 | 0.435 | 0.388 | 0.461 | 0.288 | 0.209 |  |  |  |  |  |  |  |  |  | 
CAL-12T | 0.624 | 0.548 | 0.227 | 0.206 | 0.23 | 0.864 | 0.744 | 0.715 | 0.272 | 0.178 | 1.11 | 1.03 | 0.982 | 0.707 | 0.182 | 0.289 | 0.393 | 0.359 | 0.267 | 0.242
NCI-H727 | 0.545 | 0.45 | 0.389 | 0.311 | 0.403 | 1.29 | 0.716 | 0.456 | 0.513 | 0.428 | 0.815 | 0.71 | 0.376 | 0.363 | 0.276 | 0.552 | 0.459 | 0.304 | 0.216 | 0.211
NCI-H2085 | 0.949 | 0.847 | 0.613 | 0.337 | 0.271 | 0.857 | 0.739 | 0.652 | 0.621 | 0.368 | 0.897 | 0.889 | 0.598 | 0.431 | 0.241 | 0.45 | 0.448 | 0.461 | 0.344 | 0.347
NCI-H1395 | 0.408 | 0.37 | 0.352 | 0.307 | 0.336 | 0.593 | 0.517 | 0.384 | 0.331 | 0.345 | 0.922 | 0.763 | 0.541 | 0.388 | 0.349 | 0.544 | 0.666 | 0.413 | 0.351 | 0.347
SW 900 | 0.423 | 0.214 | 0.109 | 0.147 | 0.112 | 0.476 | 0.374 | 0.236 | 0.129 | 0.146 | 0.697 | 0.511 | 0.117 | 0.0938 | 0.0882 |  |  |  |  | 
NCI-H460 | 0.831 | 0.48 | 0.0469 | 0.026 | 0.0247 | 0.855 | 0.736 | 0.458 | 0.0301 | 0.0175 | 0.935 | 1.01 | 0.832 | 0.0311 | 0.0132 | 0.37 | 0.328 | 0.0742 | 0.0745 | 0.0388
A549 |  |  |  |  |  |  |  |  |  |  | 0.998 | 0.901 | 0.616 | 0.0177 | 0.0104 | 0.74 | 0.367 | 0.0384 | 0.0238 | 0.0155
IA-LM |  |  |  |  |  | 0.943 | 0.907 | 0.865 | 0.0796 | 0.0532 | 1.07 | 0.916 | 1.11 | 0.0445 | 0.0363 | 0.336 | 0.332 | 0.219 | 0.1 | 0.0556
EKVX | 0.49 | 0.466 | 0.142 | 0.147 | 0.139 | 0.747 | 0.686 | 0.618 | 0.27 | 0.217 | 0.788 | 0.457 | 0.173 | 0.246 | 0.113 | 0.424 | 0.336 | 0.226 | 0.153 | 0.108
ChaGo-K-1 | 0.819 | 0.47 | 0.186 | 0.141 | 0.153 | 0.772 | 0.68 | 0.301 | 0.201 | 0.177 | 0.901 | 0.815 | 0.428 | 0.213 | 0.191 | 0.664 | 0.388 | 0.363 | 0.198 | 0.239
NCI-H1755 | 0.462 | 0.396 | 0.236 | 0.26 | 0.245 | 0.804 | 0.751 | 0.599 | 0.469 | 0.313 | 1 | 0.909 | 0.879 | 0.564 | 0.29 | 0.417 | 0.45 | 0.355 | 0.249 | 0.188
